# From article PMC4390552 (Chemical biology & drug design, 2014)
# Assays:
# Assay type in all cases: cell-based, human
# [1] = tested on: Akt phosphorylation in HPAEC; assay: Growth factor-stimulated Akt phosphorylation in HPAEC; conditions: 10 ng/mL PDGF or VEGF in serum-free medium; Western blot, three experiments
# [2] = tested on: ERK phosphorylation in HPASMC; assay: Growth factor-stimulated ERK phosphorylation in HPASMC; conditions: for ERK activation in HPASMC by growth factor: 10 ng/mL PDGF or VEGF in serum-free medium, Western blot, three experiments
# [3] = tested on: Akt phosphorylation in HPASMC; assay: Growth factor-stimulated Akt phosphorylation in HPASMC; conditions: for Akt activation in HPASMC by growth factor: 10 ng/mL PDGF or VEGF in serum-free medium, Western blot, three experiments
# [4] = tested on: ERK phosphorylation in HPAEC; assay: Growth factor-stimulated ERK phosphorylation in HPAEC; conditions: for ERK activation in HPAEC by growth factor: 10 ng/mL PDGF or VEGF in serum-free medium, Western blot, three experiments
# [5] = tested on: HPASMC; assay: MTT cell viability assay; conditions: 100 μM CPP (H2O2 0.5 mM), 30-min incubation, OD 570 nm, quadruplicate
Molecule,Akt activation in HPAEC by growth factor [1],ERK activation in HPASMC by growth factor [2],Akt activation in HPASMC by growth factor [3],ERK activation in HPAEC by growth factor [4],"Concentration at which the dose response of ERK activation maximized ([4]; HPAEC, increasing VEGF in serum-free medium) [ng/mL]",ERK phosphorylation in HPASMC by EGF ([2]; 1 ng/mL EGF),Akt phosphorylation in HPASMC by EGF ([3]; 1 ng/mL EGF),Effect on cell viability (MTT) [5],"Concentration at which the dose response of ERK activation maximized ([2]; HPASMC, increasing PDGF in serum-free medium) [ng/mL]"
VEGF,failed to activate Akt,no activity,no activity,strong ERK phosphorylation,1,,,,
"EGF: epidermal growth factor (NSDSECPLSHDGYCLHDGVCMYIEALDKYACNCVVGYIGERCQYRDLKWWELR; UniProt P01133 971-1023, looked up)",,,,,,induced the phosphorylation of both ERK and Akt,induced the phosphorylation of both ERK and Akt,,
OO [Hydrogen peroxide],,,,,,,,statistically significant toxicity,
PDGF,failed to activate Akt,activated,activated,inactive,,,,,1
